How the values were obtained:
[1] = system: VEGF-induced retinal leukostasis; experiment: Concanavalin A ex vivo retinal leukostasis quantification, VEGF-induced; format: in vivo, Brown Norway rats
Description: This study employed Brown Norway rats, AZ (1 μg, 10 μg, 20 μg), PBS, aprotinin, VEGF164, and polyclonal anti-AZ antibody (1 μg). Briefly, Brown Norway rats received intravitreal injections of AZ (1 μg, 10 μg and 20 μg) in one eye and PBS in the contralateral eye. BRB breakdown was quantified using the Evans Blue (EB) technique at 1 hour, 3 hours, and 24 hours after intravitreal injection of AZ or PBS. To assess whether AZ induced retinal leukostasis, firm leukocyte adhesion was quantified at 3 hours and 24 hours post AZ injection (10 μg) using the ex vivo conconavalin leukostasis assay. To block AZ, rats were treated with a single intravenous injection of aprotinin (30,000KIU), prior to the intravitreal injections. To investigate whether AZ was involved in VEGF-induced BRB breakdown, rats received intravitreal injections of 50 ng recombinant mouse VEGF164 in one eye and PBS in the other eye and were treated intravenously with aprotinin (50,000KIU every eight hours) or polyclonal anti-AZ antibody (1 μg). BRB breakdown and retinal leukostasis were quantified 24 hours after VEGF injection.
Deep anesthesia was induced with xylazine and ketamine as above. The chest cavity was carefully opened and the left ventricle was entered with a 14-gauge perfusion cannula fixed to a vessel clamp; care was taken to avoid ventricular obstruction. The right atrium was opened with a 12-gauge needle to achieve outflow. With the heart providing the motive force, 250 ml/kg PBS (roughly 30 ml of PBS quickly) was perfused to clear erythrocytes and non-sticking leukocytes, followed by perfusion with FITC-coupled Concanavalin A lectin (20 μg/ml in PBS, pH 7.4, total concentration 5 mg/kg) (Vector Labs, Burlingame, Calif.). The latter stained adherent leukocytes and the vascular endothelium. Lectin staining was followed by PBS perfusion (30 ml quickly).
The retinas were flat-mounted in a water-based fluorescence-anti-fading medium (Southern Biotechnology, Birmingham, Ala.) and imaged via fluorescence microscopy (Leica upright microscope, Hamamatsu digital high sensitivity camera, openlab imaging software). The total number of adherent leukocytes per retina was counted in a masked fashion.

[2] = system: choroidal neovascular leakage; experiment: Laser-induced CNV leakage by fluorescein angiography (model of AMD); format: in vivo, mice; conditions: 50,000KIU/day, i.p.
Description: Laser-induced CNV is a VEGF-dependent model for exudative changes that occur in AMD. In this model, disruption of an animal's Bruch's membrane by laser results in formation of CNV lesions. In these lesions, neovascular capillaries originate within the choroid and extend through the disrupted Bruch's membrane into the outer nuclear layer of the retina. The formation of these leaky capillaries is mainly attributed to changes in the level of angiogenic growth factors such as VEGF.
To perform the procedure, the pupils were dilated with 1-2 drops of 1% tropicamide. Subsequently, 4-6 photocoagulation lesions were delivered to each eye, using a Coherent argon laser (532 nm wavelength, 50 μm spot size, 0.1 s duration, 120-160 mW; model 920; Coherent, Palo Alto, Calif.) between the retinal vessels in a peripapillary distribution in each fundus, using a slit lamp delivery system and a cover glass as a contact lens. The genesis of a bubble at the time of laser treatment confirmed the rupture of the Bruch's membrane. […] Images were captured on a computer (using the IMAGEnet for Windows software, Topcon, Paramus, N.J.). Two masked evaluators performed the grading of the retinal images. A choroidal neovascular membrane is considered to be present if there was early hyperfluorescence followed by later leakage at the site where the laser injury is induced. […]

In the case of aprotinin, the “leukocyte adhesion as a percentage of leukocyte adhesion in the contralateral PBS-injected eye” value ([1]; 24 hours after 50 ng VEGF, aprotinin 50,000 KIU i.v. 1 hour before, 8 and 16 hours after) is reported as 252%, the “leukocyte adhesion, VEGF-injected vs VEGF- and aprotinin-treated eyes” value ([1]; P>0.05) is reported as “did not differ significantly” and the “CNV leakage on fluorescein angiography compared to vehicle treated controls” value ([2]; day 7 post injury) is reported as “substantially smaller”. For the same substance, the “CNV lesion size on fluorescein angiography” value ([2]; day 14 post injury) was “further reduced lesion size”.

Reference: patent publication US20070248646A1, “Use of azurocidin inhibitors in prevention and treatment of ocular vascular leakage” (priority 2006, published 2007)
